Laboratory results: patent US9265253B2, “Use of macrocyclic picolinamides as fungicides” (DOW AGROSCIENCES LLC, priority 2013, dated 2016)
Like-named read-outs stand apart in the source and are kept apart here.

Legend:
[1] = test system: Puccinia triticina; Synonym: Puccinia recondite f. Sp. Tritici; assay: Wheat Brown Rust (PUCCRT) disease control; type: in vivo; conditions: Puccinia triticina, topical
Outline: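 Brown rust on first-leaf Yuma wheat: spore inoculation before or after spray application (acetone/Triton X-100 solution, or EC with Trycol in track spray), overnight 100% RH at 22 °C, disease developed at 24 °C. Severity scored 0–100% and converted to percent control against untreated.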

[2] = test system: Mycosphaerella graminicola; Anamorph: Septoria tritici; assay: Leaf Blotch of Wheat (SEPTTR) disease control; type: in vivo; conditions: Zymoseptoria tritici
Outline: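 Protective or curative format: Septoria tritici inoculation either preceded or followed fungicide application to first-leaf Yuma wheat. Severity scored 0–100%; control expressed versus untreated.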

[3] = 24 h, 1 Day Protectant, rate 100 ppm, read-out: PUCCRT 1 DP disease control
[4] = 72 h, 3 Day Curative, rate 100 ppm, read-out: PUCCRT 3 DC disease control
[5] = 24 h, 1 Day Protectant, rate 100 ppm, read-out: SEPTTR 1 DP disease control
[6] = 72 h, 3 Day Curative, rate 100 ppm, read-out: SEPTTR 3 DC disease control
[7] = 24 h, 1 Day Protectant, rate 121.5 g/H, read-out: PUCCRT 1 DP disease control
[8] = 72 h, 3 Day Curative, rate 121.5 g/H, read-out: PUCCRT 3 DC disease control
[9] = 24 h, 1 Day Protectant, rate 121.5 g/H, read-out: SEPTTR 1 DP disease control
[10] = 72 h, 3 Day Curative, rate 121.5 g/H, read-out: SEPTTR 3 DC disease control

| Structure (SMILES) | pest or weed control at 100 ppm [1, 3] | pest or weed control at 100 ppm [1, 4] | pest or weed control at 100 ppm [2, 5] | pest or weed control at 100 ppm [2, 6] | pest or weed control at 121.5 g/ha [1, 7] | pest or weed control at 121.5 g/ha [1, 8] | pest or weed control at 121.5 g/ha [2, 9] | pest or weed control at 121.5 g/ha [2, 10] | further results |
| --- | --- | --- | --- | --- | --- | --- | --- | --- | --- |
| COc1ccnc(C(=O)N[C@H]2CCC[C@H](CCC(C)C)[C@@H](OCC(C)C)[C@H](C)OC2=O)c1O [Compound F2] | 80 to 100% | 0 to 80% | 80 to 100% | 80 to 100% | – | – | – | – | – |
| CCOCC(=O)OCOc1c(OC)ccnc1C(=O)N[C@H]1CCC[C@H](Cc2ccc(OC)cc2)[C@@H](OCC(C)C)[C@H](C)OC1=O [Compound F179] | 80 to 100% | 80 to 100% | 80 to 100% | 80 to 100% | 80 to 100% | 0 to 80% | 80 to 100% | 80 to 100% | – |
| COc1ccnc(C(=O)N[C@H]2CCC[C@H](Cc3ccccc3)[C@@H](O)[C@H](C)OC2=O)c1O [Compound F40] | 80 to 100% | 0 to 80% | 0 to 80% | 0 to 80% | – | – | – | – | – |
| COc1ccc(C[C@H]2CCC[C@H](NC(=O)c3nccc(OC)c3O)C(=O)O[C@@H](C)[C@@H]2OCC(C)C)cc1 [Compound F32] | 80 to 100% | 0 to 80% | 80 to 100% | 80 to 100% | – | – | – | – | – |
| CCCO[C@@H]1[C@@H](Cc2ccc(OC)cc2)CCC[C@H](NC(=O)c2nccc(OC)c2O)C(=O)O[C@H]1C [Compound F33] | 80 to 100% | 80 to 100% | 80 to 100% | 80 to 100% | – | – | – | – | – |
| COc1ccnc(C(=O)N[C@H]2CCC[C@H](CC3CCCC3)[C@@H](OC(=O)C(C)C)[C@H](C)OC2=O)c1O [Compound F35] | 0 to 80% | – | 80 to 100% | – | – | – | – | – | – |
| COc1ccc(C[C@H]2CCC[C@H](NC(=O)c3nccc(OC)c3OC(C)=O)C(=O)O[C@@H](C)[C@@H]2OCC2CC2)cc1 [Compound F72] | 80 to 100% | 80 to 100% | 80 to 100% | 80 to 100% | 80 to 100% | 0 to 80% | 80 to 100% | 80 to 100% | – |
| COc1ccnc(C(=O)N[C@H]2CCC[C@H](CCC(C)C)[C@@H](OC3CCCC3)[C@H](C)OC2=O)c1O [Compound F6] | 80 to 100% | 80 to 100% | 80 to 100% | 80 to 100% | – | – | – | – | – |
| CCOCC(=O)OCOc1c(OC)ccnc1C(=O)N[C@H]1CCC[C@H](Cc2ccc(F)cc2)[C@@H](OC(=O)C2CCCC2)[C@H](C)OC1=O [Compound F170] | 80 to 100% | 80 to 100% | 80 to 100% | 80 to 100% | 80 to 100% | 0 to 80% | 80 to 100% | 80 to 100% | – |
| C=CCO[C@@H]1[C@@H](Cc2ccc(F)cc2)CCC[C@H](NC(=O)c2nccc(OC)c2O)C(=O)O[C@H]1C [Compound F12] | 0 to 80% | 80 to 100% | 80 to 100% | 80 to 100% | – | – | – | – | – |
| COc1ccnc(C(=O)N[C@H]2CCC[C@H](CC3CCCC3)[C@@H](OCC3CC3)[C@H](C)OC2=O)c1OC(C)=O [Compound F73] | 80 to 100% | 80 to 100% | 80 to 100% | 80 to 100% | 80 to 100% | 80 to 100% | 80 to 100% | 80 to 100% | – |
| CCO[C@@H]1[C@@H](Cc2ccccc2)CCC[C@H](NC(=O)c2nccc(OC)c2O)C(=O)O[C@H]1C [Compound F23] | 80 to 100% | 80 to 100% | 80 to 100% | 80 to 100% | – | – | – | – | – |
| COc1ccc(C[C@H]2CCC[C@H](NC(=O)c3nccc(OC)c3O)C(=O)O[C@@H](C)[C@@H]2Oc2ccccc2)cc1 [Compound F26] | 80 to 100% | 0 to 80% | 80 to 100% | 80 to 100% | – | – | – | – | – |
| COCCO[C@@H]1[C@@H](Cc2ccccc2)CCC[C@H](NC(=O)c2nccc(OC)c2OCOC(C)=O)C(=O)O[C@H]1C [Compound F112] | – | – | – | – | 80 to 100% | 80 to 100% | 80 to 100% | 80 to 100% | – |
| COc1ccnc(C(=O)N[C@H]2CCC[C@H](CCOc3ccccc3)[C@@H](OCC3CC3)[C@H](C)OC2=O)c1OCOC(C)=O [Compound F142] | 80 to 100% | 80 to 100% | 80 to 100% | 80 to 100% | 80 to 100% | 80 to 100% | 80 to 100% | 0 to 80% | – |
| COCCC(=O)Oc1c(OC)ccnc1C(=O)N[C@H]1CCC[C@H](CC2CCCC2)[C@@H](OCC2CC2)[C@H](C)OC1=O [Compound F194] | – | – | – | – | – | – | – | – | pest or weed control at 100 ppm ([1]; 24 h, Wheat Brown Rust, 1 Day Protectant, rate 100 ppm (high volume application), read-out: Disease control PUCCRT 1 DP): 80 to 100%; pest or weed control at 121.5 g/ha ([1]; 24 h, Wheat Brown Rust, 1 Day Protectant, rate 121.5 g/H (low volume application), read-out: Disease control PUCCRT 1 DP): 80 to 100%; pest or weed control at 100 ppm ([1]; 72 h, Wheat Brown Rust, 3 Day Curative, rate 100 ppm (high volume application), read-out: Disease control PUCCRT 3 DC): 80 to 100%; pest or weed control at 121.5 g/ha ([1]; 72 h, Wheat Brown Rust, 3 Day Curative, rate 121.5 g/H (low volume application), read-out: Disease control PUCCRT 3 DC): 0 to 80%; pest or weed control at 100 ppm ([2]; 24 h, Wheat Leaf Blotch, 1 Day Protectant, rate 100 ppm (high volume application), read-out: Disease control SEPTTR 1 DP): 80 to 100%; pest or weed control at 121.5 g/ha ([2]; 24 h, Wheat Leaf Blotch, 1 Day Protectant, rate 121.5 g/H (low volume application), read-out: Disease control SEPTTR 1 DP): 80 to 100%; pest or weed control at 100 ppm ([2]; 72 h, Wheat Leaf Blotch, 3 Day Curative, rate 100 ppm (high volume application), read-out: Disease control SEPTTR 3 DC): 80 to 100%; pest or weed control at 121.5 g/ha ([2]; 72 h, Wheat Leaf Blotch, 3 Day Curative, rate 121.5 g/H (low volume application), read-out: Disease control SEPTTR 3 DC): 80 to 100% |
| C=C[C@H]1CCC[C@H](NC(=O)c2nccc(OC)c2O)C(=O)O[C@@H](C)[C@@H]1Oc1ccccc1 [Compound F61] | 80 to 100% | 0 to 80% | 80 to 100% | – | – | – | – | – | – |
| COc1ccnc(C(=O)N[C@H]2CCC[C@H](Cc3ccc(F)cc3)[C@@H](Oc3ccccc3)[C@H](C)OC2=O)c1O [Compound F11] | 80 to 100% | 0 to 80% | 80 to 100% | 80 to 100% | – | – | – | – | – |
| COc1ccnc(C(=O)N[C@H]2CCC[C@H](CC(F)F)[C@@H](Oc3ccccc3)[C@H](C)OC2=O)c1O [Compound F53] | 80 to 100% | 80 to 100% | 80 to 100% | 0 to 80% | – | – | – | – | – |
| COc1ccnc(C(=O)N[C@H]2CCC[C@H](CCOc3ccccc3)[C@@H](OCC3CC3)[C@H](C)OC2=O)c1OC(C)=O [Compound F84] | 80 to 100% | 80 to 100% | 80 to 100% | 80 to 100% | 80 to 100% | 80 to 100% | 0 to 80% | – | – |
| CC[C@H]1CCC[C@H](NC(=O)c2nccc(OC)c2OCOC(C)=O)C(=O)O[C@@H](C)[C@@H]1OCC(C)C [Compound F133] | 80 to 100% | 80 to 100% | 80 to 100% | 80 to 100% | 80 to 100% | 80 to 100% | 80 to 100% | 80 to 100% | – |
| CCCO[C@@H]1[C@@H](CC2CCCC2)CCC[C@H](NC(=O)c2nccc(OC)c2OCOC(C)=O)C(=O)O[C@H]1C [Compound F122] | 80 to 100% | 80 to 100% | 80 to 100% | 80 to 100% | 80 to 100% | 80 to 100% | 80 to 100% | 80 to 100% | – |
| COc1ccnc(C(=O)N[C@H]2CCC[C@H](Cc3ccc(F)cc3)[C@@H](Oc3ccccc3)[C@H](C)OC2=O)c1OCOC(C)=O [Compound F99] | 80 to 100% | 80 to 100% | 80 to 100% | 80 to 100% | 80 to 100% | 0 to 80% | 80 to 100% | 80 to 100% | – |
